Measurements taken from patent US6444850B1, “Fungicidial compounds having a fluorovinyloxphyenyl moiety and process for the preparation thereof” (priority 1997, dated 2002).

Columns and labels:
[1] = test system: Pyricularia oryzae Carvara KA301; type: in vivo; conditions: for C. V. (%) RCB: 50 ppm, control value, rice blast; for C. V. (%) Fungicidal Activities against RCB at 10 ppm / C. V. (%) Fungicidal Activities against RCB at 10 ppm (TABLE 6): sprayed on Nakdong rice plant, control value from lesion area
Botrytis cinerae = experiment: Fungicidal activity against cucumber gray mold rot (CGM) disease; type: in vivo; conditions: 50 ppm, control value
Phytophthora infestans = type: in vivo; conditions: 50 ppm; control value, tomato late blight
Puccinia recondita = experiment: Fungicidal activity against wheat leaf rust (WLR) disease; type: in vivo; conditions: for C. V. (%) WLR: 50 ppm, control value, wheat leaf rust; for C. V. (%), Fungicidal Activities against WLB at 10 ppm: Table 8 (Test Example 5)
Erysiphae graminis = experiment: Fungicidal activity against barley powdery mildew (BPM) disease; type: in vivo; conditions: for C. V. (%) BPM: 50 ppm, control value, barley powdery mildew; for C. V. (%), Fungicidal activities against TLB at 10 ppm: Table 9 (Test Example 6)
Rhizoctonia solani AG-1 = experiment: Fungicidal activity against rice sheath blight (RSB) disease; conditions: 50 ppm, control value

Compound: CNC(=O)C(=COC)c1ccccc1COc1cccc(OC(F)=C(c2ccc(Cl)cc2)C(F)(F)F)c1 [Compound 89]
- C. V. (%) RCB [1]: 0%
- C. V. (%) CGM (Botrytis cinerae): 22%
- C. V. (%) TLB (Phytophthora infestans): 33%
- C. V. (%) WLR (Puccinia recondita): 33%
- C. V. (%) BPM (Erysiphae graminis): 0%
- C. V. (%) RSB (Rhizoctonia solani AG-1): 25%

Compound: CON=C(C(=O)OC)c1ccccc1COc1cccc(OC(F)=C(c2ccc(Cl)cc2)C(F)(F)F)c1 [Compound 90]
- C. V. (%) Fungicidal Activities against RCB at 10 ppm [1]: 93%
- C. V. (%) Fungicidal Activities against RCB at 10 ppm (TABLE 6) [1]: 93%
- C. V. (%) RCB [1]: 90%
- C. V. (%) CGM (Botrytis cinerae): 25%
- C. V. (%) TLB (Phytophthora infestans): 0%
- C. V. (%) WLR (Puccinia recondita): 100%
- C. V. (%), Fungicidal activities against TLB at 10 ppm (Erysiphae graminis): 97%
- C. V. (%) BPM (Erysiphae graminis): 99%
- C. V. (%) RSB (Rhizoctonia solani AG-1): 30%

Compound: CNC(=O)C(=NOC)c1ccccc1COc1cccc(OC(F)=C(c2ccc(Cl)cc2)C(F)(F)F)c1 [Compound 91]
- C. V. (%) Fungicidal Activities against RCB at 10 ppm [1]: 99%
- C. V. (%) Fungicidal Activities against RCB at 10 ppm (TABLE 6) [1]: 99%
- C. V. (%) RCB [1]: 99%
- C. V. (%) CGM (Botrytis cinerae): 17%
- C. V. (%) TLB (Phytophthora infestans): 64%
- C. V. (%), Fungicidal Activities against WLB at 10 ppm (Puccinia recondita): 100%
- C. V. (%) WLR (Puccinia recondita): 100%
- C. V. (%), Fungicidal activities against TLB at 10 ppm (Erysiphae graminis): 100%
- C. V. (%) BPM (Erysiphae graminis): 100%
- C. V. (%) RSB (Rhizoctonia solani AG-1): 90%

Compound: COC=C(C(=O)OC)c1ccccc1COc1cccc(OC(F)=C(c2cccc(F)c2)C(F)(F)F)c1 [Compound 92]
- C. V. (%) RCB [1]: 93%
- C. V. (%) CGM (Botrytis cinerae): 16%
- C. V. (%) TLB (Phytophthora infestans): 81%
- C. V. (%), Fungicidal Activities against WLB at 10 ppm (Puccinia recondita): 100%
- C. V. (%) WLR (Puccinia recondita): 100%
- C. V. (%), Fungicidal activities against TLB at 10 ppm (Erysiphae graminis): 99%
- C. V. (%) BPM (Erysiphae graminis): 100%
- C. V. (%) RSB (Rhizoctonia solani AG-1): 55%

Compound: CNC(=O)C(=COC)c1ccccc1COc1cccc(OC(F)=C(c2cccc(F)c2)C(F)(F)F)c1 [Compound 93]
- C. V. (%) RCB [1]: 0%
- C. V. (%) CGM (Botrytis cinerae): 0%
- C. V. (%) TLB (Phytophthora infestans): 0%
- C. V. (%) WLR (Puccinia recondita): 73%
- C. V. (%) BPM (Erysiphae graminis): 0%
- C. V. (%) RSB (Rhizoctonia solani AG-1): 5%

Compound: CON=C(C(=O)OC)c1ccccc1COc1cccc(OC(F)=C(c2cccc(F)c2)C(F)(F)F)c1 [Compound 94]
- C. V. (%) RCB [1]: 41%
- C. V. (%) CGM (Botrytis cinerae): 0%
- C. V. (%) TLB (Phytophthora infestans): 40%
- C. V. (%), Fungicidal Activities against WLB at 10 ppm (Puccinia recondita): 95%
- C. V. (%) WLR (Puccinia recondita): 100%
- C. V. (%), Fungicidal activities against TLB at 10 ppm (Erysiphae graminis): 99%
- C. V. (%) BPM (Erysiphae graminis): 100%
- C. V. (%) RSB (Rhizoctonia solani AG-1): 60%

Compound: CNC(=O)C(=NOC)c1ccccc1COc1cccc(OC(F)=C(c2cccc(F)c2)C(F)(F)F)c1 [Compound 95]
- C. V. (%) Fungicidal Activities against RCB at 10 ppm [1]: 100%
- C. V. (%) Fungicidal Activities against RCB at 10 ppm (TABLE 6) [1]: 100%
- C. V. (%) RCB [1]: 100%
- C. V. (%) CGM (Botrytis cinerae): 0%
- C. V. (%) TLB (Phytophthora infestans): 0%
- C. V. (%), Fungicidal Activities against WLB at 10 ppm (Puccinia recondita): 100%
- C. V. (%) WLR (Puccinia recondita): 100%
- C. V. (%), Fungicidal activities against TLB at 10 ppm (Erysiphae graminis): 100%
- C. V. (%) BPM (Erysiphae graminis): 100%
- C. V. (%) RSB (Rhizoctonia solani AG-1): 72%

Compound: COC=C(C(=O)OC)c1ccccc1COc1cccc(OC(F)=C(c2ccc(F)cc2)C(F)(F)F)c1 [Compound 96]
- C. V. (%) Fungicidal Activities against RCB at 10 ppm [1]: 95%
- C. V. (%) Fungicidal Activities against RCB at 10 ppm (TABLE 6) [1]: 95%
- C. V. (%) RCB [1]: 90%
- C. V. (%) CGM (Botrytis cinerae): 33%
- C. V. (%) TLB (Phytophthora infestans): 62%
- C. V. (%), Fungicidal Activities against WLB at 10 ppm (Puccinia recondita): 97%
- C. V. (%) WLR (Puccinia recondita): 100%
- C. V. (%), Fungicidal activities against TLB at 10 ppm (Erysiphae graminis): 100%
- C. V. (%) BPM (Erysiphae graminis): 100%
- C. V. (%) RSB (Rhizoctonia solani AG-1): 67%

Compound: CNC(=O)C(=COC)c1ccccc1COc1cccc(OC(F)=C(c2ccc(F)cc2)C(F)(F)F)c1 [Compound 97]
- C. V. (%) RCB [1]: 0%
- C. V. (%) CGM (Botrytis cinerae): 11%
- C. V. (%) TLB (Phytophthora infestans): 22%
- C. V. (%) WLR (Puccinia recondita): 83%
- C. V. (%) BPM (Erysiphae graminis): 33%
- C. V. (%) RSB (Rhizoctonia solani AG-1): 10%

Compound: CON=C(C(=O)OC)c1ccccc1COc1cccc(OC(F)=C(c2ccc(F)cc2)C(F)(F)F)c1 [Compound 98]
- C. V. (%) RCB [1]: 33%
- C. V. (%) CGM (Botrytis cinerae): 0%
- C. V. (%) TLB (Phytophthora infestans): 25%
- C. V. (%), Fungicidal Activities against WLB at 10 ppm (Puccinia recondita): 96%
- C. V. (%) WLR (Puccinia recondita): 100%
- C. V. (%), Fungicidal activities against TLB at 10 ppm (Erysiphae graminis): 98%
- C. V. (%) BPM (Erysiphae graminis): 100%
- C. V. (%) RSB (Rhizoctonia solani AG-1): 65%

Compound: CNC(=O)C(=NOC)c1ccccc1COc1cccc(OC(F)=C(c2ccc(F)cc2)C(F)(F)F)c1 [Compound 99]
- C. V. (%) Fungicidal Activities against RCB at 10 ppm [1]: 95%
- C. V. (%) Fungicidal Activities against RCB at 10 ppm (TABLE 6) [1]: 95%
- C. V. (%) RCB [1]: 80%
- C. V. (%) CGM (Botrytis cinerae): 21%
- C. V. (%) TLB (Phytophthora infestans): 48%
- C. V. (%), Fungicidal Activities against WLB at 10 ppm (Puccinia recondita): 100%
- C. V. (%) WLR (Puccinia recondita): 100%
- C. V. (%), Fungicidal activities against TLB at 10 ppm (Erysiphae graminis): 100%
- C. V. (%) BPM (Erysiphae graminis): 100%
- C. V. (%) RSB (Rhizoctonia solani AG-1): 90%

Compound: CNC(=O)C(=COC)c1ccccc1COc1cccc(OC(F)=C(c2ccc(Br)cc2)C(F)(F)F)c1 [Compound 101]
- C. V. (%) RCB [1]: 0%
- C. V. (%) CGM (Botrytis cinerae): 21%
- C. V. (%) TLB (Phytophthora infestans): 3%
- C. V. (%) WLR (Puccinia recondita): 73%
- C. V. (%) BPM (Erysiphae graminis): 0%
- C. V. (%) RSB (Rhizoctonia solani AG-1): 10%

Compound: COC=C(C(=O)OC)c1ccccc1COc1cccc(OC(F)=C(c2cc(Cl)cc(Cl)c2)C(F)(F)F)c1 [Compound 102]
- C. V. (%) RCB [1]: 0%
- C. V. (%) CGM (Botrytis cinerae): 0%
- C. V. (%) TLB (Phytophthora infestans): 3%
- C. V. (%) WLR (Puccinia recondita): 96%
- C. V. (%), Fungicidal activities against TLB at 10 ppm (Erysiphae graminis): 98%
- C. V. (%) BPM (Erysiphae graminis): 100%
- C. V. (%) RSB (Rhizoctonia solani AG-1): 45%

Compound: CON=C(C(=O)OC)c1ccccc1COc1cccc(OC(F)=C(c2cc(Cl)cc(Cl)c2)C(F)(F)F)c1 [Compound 103]
- C. V. (%) RCB [1]: 0%
- C. V. (%) CGM (Botrytis cinerae): 0%
- C. V. (%) TLB (Phytophthora infestans): 3%
- C. V. (%), Fungicidal Activities against WLB at 10 ppm (Puccinia recondita): 96%
- C. V. (%) WLR (Puccinia recondita): 100%
- C. V. (%), Fungicidal activities against TLB at 10 ppm (Erysiphae graminis): 100%
- C. V. (%) BPM (Erysiphae graminis): 100%
- C. V. (%) RSB (Rhizoctonia solani AG-1): 60%

Compound: CNC(=O)C(=NOC)c1ccccc1COc1cccc(OC(F)=C(c2cc(Cl)cc(Cl)c2)C(F)(F)F)c1 [Compound 104]
- C. V. (%) Fungicidal Activities against RCB at 10 ppm [1]: 98%
- C. V. (%) Fungicidal Activities against RCB at 10 ppm (TABLE 6) [1]: 98%
- C. V. (%) RCB [1]: 100%
- C. V. (%) CGM (Botrytis cinerae): 0%
- C. V. (%) TLB (Phytophthora infestans): 0%
- C. V. (%), Fungicidal Activities against WLB at 10 ppm (Puccinia recondita): 100%
- C. V. (%) WLR (Puccinia recondita): 100%
- C. V. (%), Fungicidal activities against TLB at 10 ppm (Erysiphae graminis): 100%
- C. V. (%) BPM (Erysiphae graminis): 100%
- C. V. (%) RSB (Rhizoctonia solani AG-1): 50%

Compound: COC=C(C(=O)OC)c1ccccc1COc1cccc(OC(F)=C(c2cccs2)C(F)(F)F)c1 [Compound 105]
- C. V. (%) RCB [1]: 96%
- C. V. (%) CGM (Botrytis cinerae): 0%
- C. V. (%) TLB (Phytophthora infestans): 0%
- C. V. (%), Fungicidal Activities against WLB at 10 ppm (Puccinia recondita): 96%
- C. V. (%) WLR (Puccinia recondita): 100%
- C. V. (%) BPM (Erysiphae graminis): 70%
- C. V. (%) RSB (Rhizoctonia solani AG-1): 78%

Compound: CCCCCCC(=C(F)Oc1cccc(OCc2ccccc2C(=COC)C(=O)OC)c1)C(F)(F)F [Compound 106]
- C. V. (%) RCB [1]: 0%
- C. V. (%) CGM (Botrytis cinerae): 0%
- C. V. (%) TLB (Phytophthora infestans): 0%
- C. V. (%), Fungicidal Activities against WLB at 10 ppm (Puccinia recondita): 91%
- C. V. (%) WLR (Puccinia recondita): 98%
- C. V. (%), Fungicidal activities against TLB at 10 ppm (Erysiphae graminis): 100%
- C. V. (%) BPM (Erysiphae graminis): 100%
- C. V. (%) RSB (Rhizoctonia solani AG-1): 45%

Compound: CCCCCCC(=C(F)Oc1cccc(OCc2ccccc2C(=COC)C(=O)NC)c1)C(F)(F)F [Compound 107]
- C. V. (%) RCB [1]: 0%
- C. V. (%) CGM (Botrytis cinerae): 21%
- C. V. (%) TLB (Phytophthora infestans): 3%
- C. V. (%) WLR (Puccinia recondita): 80%
- C. V. (%) BPM (Erysiphae graminis): 41%
- C. V. (%) RSB (Rhizoctonia solani AG-1): 10%
